The results in this text go back to patent publication US20190358247A1 (The Medical College of Wisconsin, Inc., priority 2016, published 2019).

The nature of data set [1]: Tissue accumulation in FC1242-luc orthotopic mice. The data set is classed as in vivo. The note with it: 1 mg/kg daily for two weeks; liver, kidney, spleen, tumor. On the procedure:
FIG. 19. Tissue accumulation of Mito-Met in in vivo FC1242-luc orthotopic mouse model. FC1242-luc orthotopic mice treated with Mito-Met10 (1 mg/kg) daily for 2 weeks. Tissue harvesting and extractions were performed 3 days after the last treatment. Quantitative data on concentrations of Mito-Met after normalization to tissue wet weight are represented as mean±SD, n=5.

The conditions of data set [2]: mouse. On the procedure: In an initial proof-of-concept experiment, syngeneic KPC cells expressing Firefly luciferase (FC1242-luc) were orthotopically implanted to the pancreas of C57BL/6 mice and tumor growth monitored using bioluminescence imaging (FIG. 15F). Mice orthotopically autografted with FC1242-luc cells were treated daily with 1 mg/kg or 150 mg/kg Met, or 1 mg/kg Mito-Met. […] Serum from these animals was collected, and hepatic and kidney toxicity tested using standard AST, ALT, AP, and BUN assays, respectively.

For another data set, the system named is AMPK. The data set can be described thus: Immunoblot of phosphorylated AMPK Thr-172 relative to total AMPK, MiaPaCa-2 cells. The data set is classed as cell-based, human. On the procedure:
In this example, the inventors have shown that the mito-met compounds of the present invention cause an increased AMPK activation in cancer cells. In preliminary experiments (FIG. 4), human MiaPaCa2 and murine FC1199 PDAC cells treated 30 min with 1 μM mito-met (MM), 1 mM Met, or the oligomycin positive control were lysed, and proteins size-separated on SDS-PAGE, transferred to PVDF, and probed with an antibody to phosphorylated AMPK Thr-172.
Immunoblotting. MiaPaCa-2 PDAC cells (1×10^6) were plated to 80% confluency in 60 mm dishes and then serum-starved for 5 hours. […] Cells were stimulated with oligomycin as a positive control. After stimulation, cells were washed twice in cold PBS and lysed using a modified RIPA buffer. Lysates were normalized for protein concentration, size separated using reducing SDS-PAGE, electro-transferred to PVDF membranes (Millipore) and then probed using primary and horseradish peroxidase-conjugated secondary antibodies. Antibodies against total or phosphorylated 5′ AMP-activated protein kinase (AMPK) were purchased from Cell Signaling Technology (Danvers, Mass.) and used at the manufacturer's recommended dilutions. Proteins were visualized by chemiluminescence with auto-exposure and quantified by densitometric analysis using the FluorChem HD2 from Cell Biosciences (Santa Clara, Calif.).
AMPK activation in Mito-Met and Met-treated PDAC cells. […]
(In general: Immunoblotting shows a protein as a band on a membrane.)

The subject of data set [3] is MiaPaCa-2 cells. The data set can be described thus: Radiosensitization, clonogenic survival after X-radiation. The data set is classed as cell-based, human. On the procedure: MiaPaCa2 cells (1000 cells/well) were cultured in quadruplicate overnight in 96-well plates and changed to fresh medium.
Radiation experiments. […] The cells were then treated with X-radiation at a dose of 0, 2, 4, and 6 Gy. The control cells were treated with the same concentration of vehicle (0.1% DMSO) where appropriate. After irradiation, cells were suspended and seeded at various densities (100-8,000 cells per well) in 6-well plates for clonogenic assay as described above. The plates were kept within the incubator and media changed every 3-4 days for 2 weeks. Wells with 10-50 sufficiently large clones were chosen for calculating the cell survival fractions.
Effect of Mito-Met and Met on PDAC radiosensitivity. Both control cells and cells were pretreated for 24 h with 1 mM Met or Mito-Met (1 μM) prior to X-radiation. Cell survival was measured by a clonogenic assay.

Data set [4] has as its system MiaPaCa-2 cells. The data set can be described thus: Clonogenic (colony formation) assay. The data set is classed as cell-based, human. On the procedure: Clonogenic assay. […] The plates were kept within the incubator and media changed every 3-4 days until the control cells formed sufficiently large clones. The cell survival fractions were calculated as previously described.
MiaPaCa-2 cells were treated with a range of concentrations as shown (FIG. 10C), and the number of colonies formed were counted.

The test system of a further data set is HaCaT. The data set can be described thus: IncuCyte cell confluence assay, keratinocytes. The data set is classed as cell-based. On the procedure:
(§1) IncuCyte Analyzer-real time measurement of cell proliferation. The cell proliferation was measured using a label-free, noninvasive cellular confluence assay by IncuCyte Live-Cell Imaging Systems (Essen Bioscience, Ann Arbor, Mich., USA; IncuCyte FLR). This system enables collection of live cell images at 2 h intervals over several days. The IncuCyte Analyzer provides real-time cellular confluence data based on segmentation of high-definition phase-contrast images. The cell proliferation is expressed as an increase in percentage of cell confluence.

Data set [5] relates to MiaPaCa-2 cells. The data set can be described thus: Three-dimensional spheroid growth in Matrigel. The data set is classed as cell-based, human. On the procedure: Three-dimensional spheroid cell cultures of PDAC. MiaPaCa-2 cells (5,000) were seeded in 96-well plates containing Matrigel (Corning), used as scaffold. This typical 3D-cell culture system allows spheroids to form within the matrix. […] At days 3, 7, and 14 the wells were observed by bright-field microscopy and images acquired on a Nikon Eclipse Ti inverted microscope (Nikon instrument Inc., NY, USA). Spheroid-forming cells were counted using the Nikon NIS Elements imaging software (Nikon). Data are expressed as mean and SD of number of spheroids.
We tested the antiproliferative effects of Mito-Met and Met in the multicellular spheroid model (FIG. 11A). MiaPaCa-2 cells were cultured for 14 days in Matrigel and treated with Mito-Met10 and Met.

The subject of the next data set is MCF-10A. The data set can be described thus: IncuCyte cell confluence assay, nonmalignant breast epithelial cells. The data set is classed as cell-based. On the procedure:
as §1

Data set [6] has as its system MiaPaCa-2 cells. The data set can be described thus: IncuCyte label-free cell confluence proliferation assay. The data set is classed as cell-based, human. Conditions: PDAC / MiaPaCa-2, from two independent cell growth assays. On the procedure: Cell proliferation was measured using a label-free, non-invasive cellular confluence assay employing the IncuCyte™ Live-Cell Imaging Analyzer (Essen Bioscience). This system provides real-time cellular confluence data based on segmentation of high definition phase contrast images. […] MiaPaCa2 cells were treated with Met (1 and 2 mM) or Mito-Met-C10 (1-2 μM).
as §1

Structures are written as SMILES. Where “and” joins values, the source holds several entries; their conditions need not be identical. Equal values may be shown once.

Take `Br.N=C(N)NC(=N)NCCCCCCCCCC[P+](c1ccccc1)(c1ccccc1)c1ccccc1` [Mito-Met10]: in data set [1], the tissue accumulation result is “increased accumulation”. Moreover, the “toxicity in vivo (hepatic and kidney)” value in data set [2] is on record as “neither Met nor the mitochondria-targeted analog Mito-Met elicited toxicity”. Moreover, in [2] (in vivo, 1 mg/kg), the Kidney BUN turned out to be 27 ± 4 mg/dL, the “Liver ALT” value was 26 ± 10 IU/L and the “Liver AST” value amounted to 89 ± 16 IU/L. Also, in the data set on AMPK (MiaPaCa-2), the “potency of AMPK activation relative to metformin” value is ~1,000 fold. Further, the “increase in active AMPK (phosphorylated relative to total protein)” value in the data set on AMPK (human MiaPaCa-2, 1 μM, 30 min) is 1.5-2.5 fold. Besides, the “radiosensitizing concentration, fold lower than Met” value in the data set on MiaPaCa-2 cells [3] (1 μM versus Met 1 mM) is 1,000 fold. In the data set on MiaPaCa-2 cells [3] (24 h pretreatment (1 mM Met, 1 μM Mito-Met) before X-radiation), the radiosensitization entry is “as effective as 1 mM Met”. Moreover, the colony formation entry in the data set with MiaPaCa-2 cells [4] (3 μM, 24 h) is reported as “Almost no colony formation”. Besides, the IC50 in the data set on MiaPaCa-2 cells [4] (read-out: IC50, colony formation / survival fraction, MiaPaCa-2, 24 h treatment) turned out to be 1100 nM. The “effect on cell confluence” value with HaCaT is reported as “not significantly affected”. Also, the “fold more effective than Met in inhibiting PDAC proliferation, 2D and 3D cell growth assays” value in the data set on MiaPaCa-2 cells [5] was 1,000- to 10,000 fold. Besides, in the data set on MiaPaCa-2 cells [5] (0.5 μM, 14 days), the PDAC spheroid growth result is “potently inhibited PPAC spheroid growth”. In addition, the “effect on cell confluence” value with MCF-10A is on record as “not significantly affected”. Also, in the data set on MiaPaCa-2 cells [6], the “fold more effective than metformin in inhibiting cell proliferation” value was ~1,000 fold and > 1,000 fold. The “fold more effective than metformin in inhibiting cell proliferation” value in the data set on MiaPaCa-2 cells [6] (listed as mito-met-C10) is ~1,000 fold.
